Values of other authors, collected in patent US9421268B2, “Pediatric oral liquid compositions containing nepadutant” (LABORATORI GUIDOTTI S.P.A., priority 2012, dated 2016).
Bridge positions count the residues as written; N and C are the ends. Square brackets hold non-standard residues; d marks the D form. Peptide text beside a SMILES is read from it. * marks the point of attachment. NH(β-GlcNAc) = CC(=O)N[C@@H]1[C@@H](O)[C@H](O)[C@@H](CO)O[C@H]1N*; Dap = NC[C@H](N)C(=O)O

Key:
[1] = in vivo; cited from earlier work
hyperalgesia = details: new born rats; cited from earlier work
NK2 receptors = target: T1, NK2 receptors (Rattus norvegicus, UniProt P16610); details: oral, new born rats, basal parameters not altered; cited from earlier work
T1 construct: from tissue; host or cells: intestine of new born rats (in vivo)
T1 sequence (P16610 1-390): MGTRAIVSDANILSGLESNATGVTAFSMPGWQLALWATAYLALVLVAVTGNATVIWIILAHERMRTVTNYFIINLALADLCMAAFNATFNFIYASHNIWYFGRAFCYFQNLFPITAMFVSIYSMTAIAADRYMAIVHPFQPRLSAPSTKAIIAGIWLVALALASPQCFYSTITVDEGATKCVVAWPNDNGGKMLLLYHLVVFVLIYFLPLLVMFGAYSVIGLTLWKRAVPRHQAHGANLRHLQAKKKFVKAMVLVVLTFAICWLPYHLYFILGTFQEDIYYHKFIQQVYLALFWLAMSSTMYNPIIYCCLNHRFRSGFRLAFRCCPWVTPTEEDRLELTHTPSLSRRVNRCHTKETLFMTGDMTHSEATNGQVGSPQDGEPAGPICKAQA

CC(=O)N[C@@H]1[C@@H](O)[C@H](O)[C@@H](CO)O[C@H]1NC(=O)C[C@@H]1NC(=O)[C@H](CC(C)C)NC(=O)[C@@H]2CNC(=O)C[C@H](NC1=O)C(=O)N[C@@H](Cc1c[nH]c3ccccc13)C(=O)N[C@@H](Cc1ccccc1)C(=O)N2 [Nepadutant, [N^4-(2-acetylamino-2-deoxy-β-D-glucopyranosyl)-L-asparaginyl-L-α-triptophan-L-phenylalanyl-L-2,3-diaminopropio-nil-L-leucil]-C-4.2-N-3.5-lattame-C-1.6-N-2.1-lattame] (cyclo(D(NH(β-GlcNAc))DWF[Dap]L); lactam 2-5)
oral absorption [1]: absorbed
efficacy in a model of hyperalgesia (hyperalgesia): effective
time after administration up to which the increase in intestinal transit is blocked (NK2 receptors): up to 24 hours
